Laboratory results reported in patent US10501412B2, “Conjugates of cell binding molecules with cytotoxic agents” (HANGZHOU DAC BIOTECH CO., LTD., priority 2012, dated 2019).

Details: generated by hydrolysis of Phe and Tyr in the animal blood circulation

## Mep-Ile-Tuv [Mep-Ile-Tuv moiety]
  fold less potency than tubulysin A and D: over 200 fold
